The values below are quoted from earlier work in patent publication US20140155265A1, “HERBICIDAL COMPOSITIN COMPRISING PINOXADEN AND FLUROXYPYR AND METHODS OF USE THEREOF” (priority 2011, published 2014).

As usually defined, the pKa is the negative logarithm of the acid dissociation constant.

The conditions of this series: Pesticide Manual 15th edition.

`Nc1c(Cl)c(F)nc(OCC(=O)O)c1Cl` [Fluoroxypyr (free carboxylic acid), Fluoroxypyr]: the pKa is on record as 2.94.
